Measured values from paper PMC6934184, “Selective DNA-PKcs inhibition extends the therapeutic index of localized radiotherapy and chemotherapy” (The Journal of Clinical Investigation, 2019).

Target: T1, RET Y791F (Homo sapiens, UniProt P07949, Y791F)
T1 construct: purchased Thermo Fisher Scientific (Life Technologies) SelectScreen
Assay: SelectScreen Z'LYTE
Format: biochemical
Protocol: The in vitro kinase selectivity of NU5455 was determined using the SelectScreen Broad Assay Panel (Thermo Fisher Scientific) involving activity and binding assays (Supplemental Table 1). […] Class IA PI3Ks were measured using the p85α subunit.
Kinase [ATP] % Assay Kinase [ATP] % Assay Kinase [ATP] % Assay Kinase [ATP] % Assay […]
RET Y791F Km app 9.2 Z PIK3CG (p110 gamma) Km app 2.9 A KIT D816H n/a -0.2 L TAOK2 (TAO1) Km app -5.1 Z […]
SGK (SGK1) Km app 8.5 Z MAP4K2 (GCK) Km app 2.7 Z TLK2 n/a -0.3 L STK38 (NDR) n/a -5.9 L
MERTK (cMER) Km app 8.3 Z CDK2/cyclin A Km app 2.7 Z TGFBR1 (ALK5) n/a -0.4 L MATK (HYL) Km app -6.3 Z
FYN Km app 8.3 Z EPHA1 Km app 2.7 Z CLK3 Km app -0.5 Z ABL1 E255K Km app -6.6 Z
TEC n/a 8.1 L CDK2/cyclin E1 n/a 2.7 L MAP3K14 (NIK) n/a -0.5 L STK17A (DRAK1) n/a -6.6 L
KIT V654A n/a 8.1 L TESK2 n/a 2.7 L AKT3 (PKB gamma) Km app -0.5 Z JAK2 JH1 JH2 Km app -6.7 Z
ROS1 Km app 8.0 Z SPHK1 Km app 2.7 A MAP3K9 (MLK1) Km app -0.5 Z PRKACB (PRKAC beta) n/a -6.8 L
FGFR3 K650E Km app 7.9 Z AMPK A2/B1/G1 Km app 2.6 Z IKBKB (IKK beta) Km app -0.6 Z PDGFRA (PDGFR alpha) Km app -6.8 Z
RAF1 (cRAF) Y340D Y341D 100 7.9 Z DYRK3 Km app 2.6 Z CAMK2A (CaMKII alpha) Km app -0.6 Z NEK9 Km app -7.2 Z
PI4KA (PI4K alpha) 10 7.8 A CSNK1D (CK1 delta) Km app 2.6 Z PRKCB1 (PKC beta I) Km app -0.7 Z PDK1 Km app -7.3 Z
HIPK2 Km app 7.8 Z ACVR2A n/a 2.5 L TTK n/a -0.7 L RPS6KB1 (p70S6K) Km app -7.8 Z […]

T1 sequence (P07949 29-1114 Y791F): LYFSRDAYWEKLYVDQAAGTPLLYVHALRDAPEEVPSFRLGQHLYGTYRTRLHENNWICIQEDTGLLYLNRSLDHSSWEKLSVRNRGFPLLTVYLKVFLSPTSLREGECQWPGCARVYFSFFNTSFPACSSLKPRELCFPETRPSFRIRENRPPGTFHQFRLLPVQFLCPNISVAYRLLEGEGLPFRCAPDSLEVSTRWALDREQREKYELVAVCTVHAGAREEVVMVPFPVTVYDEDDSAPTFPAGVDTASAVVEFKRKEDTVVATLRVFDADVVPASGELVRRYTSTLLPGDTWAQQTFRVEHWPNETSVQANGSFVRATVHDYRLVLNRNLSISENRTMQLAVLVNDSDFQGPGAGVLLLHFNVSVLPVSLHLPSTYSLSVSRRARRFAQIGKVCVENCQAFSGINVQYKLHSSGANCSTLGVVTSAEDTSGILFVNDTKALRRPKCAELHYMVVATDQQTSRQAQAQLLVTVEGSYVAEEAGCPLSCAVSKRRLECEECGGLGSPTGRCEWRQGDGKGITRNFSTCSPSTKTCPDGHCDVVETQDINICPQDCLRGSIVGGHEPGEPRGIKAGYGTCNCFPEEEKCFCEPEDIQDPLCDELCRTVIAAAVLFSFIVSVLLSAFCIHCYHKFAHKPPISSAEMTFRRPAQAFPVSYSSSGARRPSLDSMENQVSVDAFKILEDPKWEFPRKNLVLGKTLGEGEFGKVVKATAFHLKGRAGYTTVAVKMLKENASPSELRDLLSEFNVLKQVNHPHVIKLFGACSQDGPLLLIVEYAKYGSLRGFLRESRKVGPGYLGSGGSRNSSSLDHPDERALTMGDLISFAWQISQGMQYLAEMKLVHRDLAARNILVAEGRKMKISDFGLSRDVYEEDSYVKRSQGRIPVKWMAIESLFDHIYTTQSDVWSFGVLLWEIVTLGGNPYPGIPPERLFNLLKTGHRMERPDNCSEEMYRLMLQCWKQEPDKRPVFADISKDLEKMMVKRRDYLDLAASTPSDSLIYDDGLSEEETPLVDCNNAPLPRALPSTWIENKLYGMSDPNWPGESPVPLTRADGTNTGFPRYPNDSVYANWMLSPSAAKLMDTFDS

In the case of `CN(C(=O)CN1CCOCC1)c1ccc2sc3c(-c4cccc5c(=O)cc(N6CC7CCC(C6)O7)oc45)cccc3c2c1` [NU5455], the inhibition at 1 µM is reported as 9.2%.
